Results as given in patent US20260022114A1, “N-(5-SUBSTITUTED-[(1,3,4-THIADIAZOLYL) OR (1,3-THIAZOLYL)](SUBSTITUTED)CARBOXAMIDE COMPOUNDS, PHARMACEUTICAL COMPOSITIONS, AND METHODS OF PREPARING THE AMIDE COMPOUNDS AND OF THEIR USE” (Repare Therapeutics Inc., priority 2022, published 2026).

Biological target: PolQ ATPase enzyme (1-894) (Homo sapiens (Human), UniProt O75417)
Assay: Polθ ATPase enzymatic assay (0.5 nM enzyme concentration), ADP-Glo
Type: biochemical
Conditions: 0.5 nM PolQ ATPase enzyme (1-894); average IC50
Procedure: PolQ ATPase enzyme (1-894) at 0.5 nM is incubated with a 10-point concentration response of inhibitors for 15 min at rt in the following buffer: 50 mM Tris Cl pH 7.5, 10% glycerol, 5 mM DTT, 10 mM MgCl2, 0.1 mg/ml BSA. Following pre-incubation with inhibitors, DNA (Fork C) at 20 nM and ATP at 100 μM are added to start the reaction. Enzymatic reaction proceeds at rt for 180 min. ATP consumption is measured using the ADP-Glo assay from Promega. Luminescence is read on the Envision and IC50 are determined using the variable slope 4-parameters equation.
Oligos are annealed by heating at 95° C. for 5 min in the following buffer (10 mM Tris-HCl PH7.5, 50 mM NaCl, 1 mM EDTA) and cooled to rt. […]

PolQ ATPase enzyme (1-894), sequence (O75417 1-894): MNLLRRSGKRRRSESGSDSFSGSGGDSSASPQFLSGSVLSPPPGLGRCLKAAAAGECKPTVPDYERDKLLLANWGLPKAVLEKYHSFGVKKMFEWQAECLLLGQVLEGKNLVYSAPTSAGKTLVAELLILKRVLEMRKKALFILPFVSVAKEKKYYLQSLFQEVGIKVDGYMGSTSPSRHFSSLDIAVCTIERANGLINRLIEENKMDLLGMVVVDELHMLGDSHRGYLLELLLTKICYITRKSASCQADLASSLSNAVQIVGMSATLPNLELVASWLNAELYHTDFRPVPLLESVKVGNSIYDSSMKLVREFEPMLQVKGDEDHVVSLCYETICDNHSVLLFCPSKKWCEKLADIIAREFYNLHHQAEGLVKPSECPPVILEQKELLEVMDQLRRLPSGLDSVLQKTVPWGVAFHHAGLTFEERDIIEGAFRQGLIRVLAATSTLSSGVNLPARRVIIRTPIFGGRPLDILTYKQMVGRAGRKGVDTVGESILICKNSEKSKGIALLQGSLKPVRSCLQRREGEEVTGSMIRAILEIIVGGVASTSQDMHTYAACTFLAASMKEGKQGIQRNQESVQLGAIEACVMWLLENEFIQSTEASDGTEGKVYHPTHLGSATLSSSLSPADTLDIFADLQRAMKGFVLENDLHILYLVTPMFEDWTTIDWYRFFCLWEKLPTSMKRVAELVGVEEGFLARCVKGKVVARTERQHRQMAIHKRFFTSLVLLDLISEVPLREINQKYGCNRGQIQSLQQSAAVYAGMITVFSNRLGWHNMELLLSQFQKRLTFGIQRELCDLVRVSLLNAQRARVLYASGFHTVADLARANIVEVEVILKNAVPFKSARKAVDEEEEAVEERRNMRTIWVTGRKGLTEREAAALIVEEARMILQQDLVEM

IC50 [nM]	SMILES
1.2	COc1cnc(C(F)F)cc1-c1cc(-n2ccc(C)cc2=O)ncc1C(=O)Nc1nnc([C@H]2C[C@@H]2C(C)C)s1 (racemic) [Compound 586]
0.81	COc1cnc(C(F)F)cc1-c1cc(C#CCN2CCCC2=O)ncc1C(=O)Nc1nnc([C@H]2C[C@@H]2C)s1 (racemic) [Compound 618]
1.6	COc1ncc(-c2cc(-c3cc(C(F)F)ncc3OC)c(C(=O)Nc3nnc(C#CC4CC4)s3)cn2)cn1 [Compound 533]
< 0.25	COc1cnc(C(F)F)cc1-c1cc(N2CC3CC3CC2=O)ncc1C(=O)Nc1nnc(C#CC2CC2)s1 (racemic) [Compound 388]
0.44	COc1cnc(C(F)F)cc1-c1cc(-n2ccc(N(C)C)cc2=O)ncc1C(=O)Nc1nnc(C#CC2CC2)s1 [Compound 537]
1.4	COc1cnc(C(F)F)cc1-c1cc(C2C[C@@H]2C(=O)N(C)C)ccc1C(=O)Nc1nnc(C#CC2CC2)s1 (mixture of isomers) [Compound 362]
0.96	COc1cnc(C(F)F)cc1-c1cc(-n2ccc(C3CCN(C)CC3)cc2=O)ncc1C(=O)Nc1nnc(C#CC2CC2)s1 [Compound 536]
2	COc1cnc(C(F)F)cc1-c1cc(-n2ccc(C)cc2=O)ncc1C(=O)Nc1nnc(C2CC3(CCC3)C2)s1 [Compound 566]
< 0.25	COc1cnc(C(F)F)cc1-c1cc(-n2ccc(CO)cc2=O)ncc1C(=O)Nc1nnc(C#CC2CC2)s1 [Compound 490]
0.51	COc1cnc(C(F)F)cc1-c1cc(-n2ccc(C)cc2=O)ncc1C(=O)Nc1nnc([C@H]2C[C@@H]2c2cnn(C)c2)s1 (racemic) [Compound 584]
4	COc1cnc(C(F)F)cc1-c1cc(-n2ccc(C)cc2=O)ncc1C(=O)Nc1nnc(C2CC2(F)Cl)s1 (racemic) [Compound 605]
3	C#C[C@H]1C[C@@H](c2nnc(NC(=O)c3cnc(-n4ccc(C)cc4=O)cc3-c3cc(C(F)F)ncc3OC)s2)C1 [Compound 594]
0.72	COc1cnc(C(F)F)cc1-c1cc(-n2ncc(C)cc2=O)ncc1C(=O)Nc1nnc(C2C[C@@H]2C)s1 (single isomer, unassigned) [Compound 642]
0.7	COc1cnc(C(F)F)cc1-c1cc(N2CCC(C)CCC2=O)ncc1C(=O)Nc1nnc(C#CC2CC2)s1 (racemic) [Compound 485]
0.54	COc1cnc(C(F)F)cc1-c1cc(C#CCN2CCOCC2)ncc1C(=O)Nc1nnc([C@H]2C[C@@H]2c2cncs2)s1 (racemic) [Compound 640]
< 0.25	COc1cnc(C(F)F)cc1-c1cc(-n2ccc(N)cc2=O)ncc1C(=O)Nc1nnc(C#CC2CC2)s1 [Compound 488]
1.5	COc1cnc(C(F)F)cc1-c1cc(Cn2ccccc2=O)ncc1C(=O)Nc1nnc(C#CC2CC2)s1 [Compound 507]
1.2	COc1cnc(C(F)F)cc1-c1cc(-n2ccc(OC3CCN(C)CC3)cc2=O)ncc1C(=O)Nc1nnc(C#CC2CC2)s1 [Compound 611]
1	COc1cnc(C(F)F)cc1-c1cc(C#CCN2CCN(C)CC2)ncc1C(=O)Nc1nnc(C#CC2CC2)s1 [Compound 540]
0.25	CNC(=O)Cn1cc(-c2cc(C(F)(F)F)ccc2OC)c(C(=O)Nc2nnc(C3C[C@H]3c3ccc(C#N)cc3)s2)cc1=O (stereo partly drawn) [Compound 92]
3.2	COc1cnc(C(F)F)cc1-c1cc(C#CCC(C)(C)O)ncc1C(=O)Nc1nnc([C@H]2C[C@@H]2C)s1 (racemic) [Compound 620]
0.27	COc1cnc(C(F)F)cc1-c1cc(-n2ccc(OC3COC3)cc2=O)ncc1C(=O)Nc1nnc(C#CC2CC2)s1 [Compound 610]
0.59	COc1cnc(C(F)F)cc1-c1cc(C#CCN2C[C@@H](C)O[C@@H](C)C2)ncc1C(=O)Nc1nnc(C#CC2CC2)s1 [Compound 529]
< 0.25	COc1cnc(C(F)F)cc1-c1cc(N2CCC3CCC3C2=O)ncc1C(=O)Nc1nnc(C#CC2CC2)s1 (racemic) [Compound 443]

More lines, now with the values behind:

SMILES	IC50 [nM]
COc1cnc(C(F)F)cc1-c1cc(N(C)c2nnc(C)o2)ccc1C(=O)Nc1nnc(C#CC2CC2)s1 [Compound 118, N-(5-(cyclopropylethynyl)-1,3,4-thiadiazol-2-yl)-2-(2-(difluoromethyl)-5-methoxypyridin-4-yl)-4-(methyl (5-methyl-1,3,4-oxadiazol-2-yl)amino)benzamide]	0.99
C#C[C@H]1C[C@@H]1c1nnc(NC(=O)c2cnc(-n3ccc(CO)cc3=O)cc2-c2cc(C(F)F)ncc2OC)s1 [Compound 571]	< 0.25
COc1cnc(C(F)F)cc1-c1cc(-n2ccc(C)cc2=O)ncc1C(=O)Nc1nnc([C@H]2C[C@@H]2c2ccn(C)n2)s1 (racemic) [Compound 583, 2″-(difluoromethyl)-5″-methoxy-4-methyl-N-(5-((1S,2S)-2-(1-methyl-1H-pyrazol-3-yl)cyclopropyl)-1,3,4-thiadiazol-2-yl)-2-oxo-2H-[1,2′:4′,4″-terpyridine]-5′-carboxamide]	< 0.25
COc1cnc(C(F)F)cc1-c1cc(C#CCC(C)(C)O)ncc1C(=O)Nc1nnc([C@H]2C[C@@H]2c2ccn(C)n2)s1 [Compound 631]	0.93
COc1cnc(C(F)F)cc1-c1cc(C#CCN2CCNC2=O)ncc1C(=O)Nc1nnc(C#CC2CC2)s1 [Compound 559]	< 0.25
COc1cc(C)ncc1-c1cc(-c2cc(C(F)F)ncc2OC)c(C(=O)Nc2nnc(C#CC3CC3)s2)cn1 [Compound 489]	0.4
COc1cnc(C(F)F)cc1-c1cc(C#CCN2CCCC2)ncc1C(=O)Nc1nnc(C#CC2CC2)s1 [Compound 600]	0.6
COc1cnc(C(F)F)cc1-c1cc(-n2ccc(C)cc2=O)ncc1C(=O)Nc1nnc(C#CC2CCOCC2)s1 [Compound 487]	< 0.25
COc1cnc(C(F)F)cc1-c1cc(C#CC2CCN(C)CC2)ncc1C(=O)Nc1nnc(C#CC2CC2)s1 [Compound 555]	1
C#C[C@H]1C[C@@H]1c1nnc(NC(=O)c2cnc(-n3cccc(F)c3=O)cc2-c2cc(C(F)F)ncc2OC)s1 [Compound 562, 2″-(difluoromethyl)-N-(5-((1S,2S)-2-ethynylcyclopropyl)-1,3,4-thiadiazol-2-yl)-3-fluoro-5″-methoxy-2-oxo-2H-[1,2′:4′,4″-terpyridine]-5′-carboxamide]	< 0.25
COc1cnc(C(F)F)cc1-c1cc(C#CCn2cccn2)ncc1C(=O)Nc1nnc(C#CC2CC2)s1 [Compound 598]	15
C#C[C@@H]1CC1c1nnc(NC(=O)c2ccc(N3CCOCC3=O)cc2-c2cc(C(F)F)ncc2OC)s1 (stereo partly drawn) [Compound 177]	0.39
COc1cnc(C(F)F)cc1-c1cc(-n2ccc(C)cc2=O)ncc1C(=O)Nc1nnc([C@H]2C[C@@H]2C2CCOCC2)s1 (racemic) [Compound 581]	0.99
COc1cnc(C(F)F)cc1-c1cc(N2CCN(C=O)C3(CC3)C2=O)ncc1C(=O)Nc1nnc(C#CC2CC2)s1 [Compound 520]	0.27
C#C[C@H]1C[C@@H]1c1nnc(NC(=O)c2cnc(-n3ccc(OC4COC4)cc3=O)cc2-c2cc(C(F)F)ncc2OC)s1 [Compound 617]	< 0.25
COc1cnc(C(F)F)cc1-c1cc(-n2ccc(C)cc2=O)ncc1C(=O)Nc1nnc(C#CC2CC23CC3)s1 (racemic) [Compound 557]	< 0.25
COc1cnc(C(F)F)cc1-c1cc(C#CCN2CCOCC2)ncc1C(=O)Nc1nnc([C@H]2C[C@@H]2C)s1 (racemic) [Compound 606]	4
COc1cnc(C(F)F)cc1-c1cc(-n2ccc(C)cc2=O)ncc1C(=O)Nc1nnc(CC(C)(C)OC)s1 [Compound 568]	45
